Measured values from patent US8575135B2 (Gilead Sciences, Inc., priority 2011, dated 2013).
Read-outs that look alike come from different tables or passages of the source.

Experiments:
Experiment in all cases: microbe, parasite or virus in culture
Settings in all cases: Hepatitis C virus
[1] = test system: 1a Pi-Rluc replicon with Q30R in genotype 1a NS5A; assay type: cell-based, HCV
Procedure, shortened: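 Q30R introduced by site-directed mutagenesis into genotype 1a Pi-RLuc replicon; RNA transiently transfected into Huh-7-derived cured-51 cells.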

[2] = test system: NS5A chimeric genotype 1b Con1 replicon with genotype 4a ED43 strain NS5A gene; assay type: cell-based, HCV
[3] = test system: stable HCV 2a JFH-1 Rluc replicon cells (L31 present in NS5A); assay type: cell-based
[4] = test system: stable HCV 1a RLuc replicon cells (genotype 1a H77 replicon); assay type: cell-based
[5] = test system: NS5A chimeric genotype 1b Con1 replicon with genotype 3a S52 strain NS5A gene; assay type: cell-based, HCV
Procedure, shortened: (§1)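 Genotype 3a (S52) and 4a (ED43) NS5A chimeras use 1b Con1 Pi-RLuc replicons, transfected transiently; 2b MD2b-1 NS5A chimera (M31) uses 2a JFH-1 RLuc-Neo replicon, transient or stable.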

[6] = test system: NS5A chimeric genotype 2a JFH-1 replicon with genotype 2b MD2b-1 strain NS5A gene (M31 present); assay type: cell-based, HCV
Procedure, shortened: as §1

[7] = test system: NS5A chimeric genotype 2a JFH-1 replicon with genotype 2a J6 strain NS5A gene (M31 present); assay type: cell-based, HCV

Compound | EC50 ([1]; read-out: 1a Q30R) [nM] | EC50 ([1]; read-out: 1a Q30R (nM)) [nM] | EC50 ([2]; read-out: 4a) [nM] | EC50 ([2]; read-out: 4a (s) (nM)) [nM] | EC50 ([2]; read-out: 4a (t) (nM)) [nM] | EC50 ([3]; read-out: 2a JFH) [nM] | EC50 ([3]; read-out: 2a JFH (nM)) [nM] | EC50 ([4]; read-out: 1a) [nM] | EC50 ([4]; read-out: 1a (nM)) [nM] | EC50 ([5]; read-out: 3a) [nM] | EC50 ([5]; read-out: 3a (nM)) [nM] | EC50 ([6]; read-out: 2b) [nM] | EC50 ([6]; read-out: 2b (s) (nM)) [nM] | EC50 ([6]; read-out: 2b (t) (nM)) [nM] | EC50 ([7]; read-out: 2a J6) [nM] | EC50 ([7]; read-out: 2a J6 (s) (nM)) [nM] | EC50 ([7]; read-out: 2a Jb (t) (nM)) [nM]
COC(=O)N[C@H](C(=O)N1C[C@@H](C)C[C@H]1c1ncc(-c2ccc3c(c2)COc2cc4c(ccc5nc([C@@H]6C[C@H](C)CN6C(=O)[C@@H](NC(=O)OC)C(C)C)[nH]c54)cc2-3)[nH]1)C(C)C [Example ND, Methyl {(2S)-1-[(2S,5S)-2-(5-{2-[(2S,4S)-1-{(2S)-2-[(methoxycarbonyl)amino]-3-methylbutanoyl}-4-methylpyrrolidin-2-yl]-1,11-dihydroisochromeno[4′,3′:6,7]naphtho[1,2-d]imidazol-9-yl}-1H-imidazol-2-yl)-4-methylpyrrolidin-1-yl]-3-methyl-1-oxobutan-2-yl}carbamate] | < 1 | 0.057 | < 1 | 0.044 | 0.031 | < 1 | 0.014 | < 1 | 0.02 | < 1 | 0.035 | < 1 | 1.32 | 0.27 | < 1 | 2.34 | 0.314
CCO[C@H]1C[C@@H](c2nc3ccc4cc5c(cc4c3[nH]2)OCc2cc(-c3cnc([C@@H]4CCCN4C(=O)[C@H](NC(=O)OC)c4ccccc4)[nH]3)ccc2-5)N(C(=O)[C@@H](NC(=O)OC)C(C)C)C1 [Example OR, Methyl {(1R)-2-[(2S)-2-(5-{2-[(2S,4S)-4-ethoxy-1-{(2S)-2-[(methoxycarbonyl)amino]-3-methylbutanoyl}pyrrolidin-2-yl]-1,11-dihydroisochromeno[4′,3′:6,7]naphtho[1,2-d]imidazol-9-yl}-1H-imidazol-2-yl)pyrrolidin-1-yl]-2-oxo-1-phenylethyl}carbamate] | < 1 | 0.059 | < 1 | 0.006 | 0.036 | < 1 | 0.011 | < 1 | 0.03 | < 1 | 0.031 | < 1 | 0.109 | 0.037 | < 1 | 0.16 | 0.068
COC(=O)N[C@H](C(=O)N1[C@H](c2nc3ccc4cc5c(cc4c3[nH]2)OCc2cc(-c3cnc(C4CCCN4C(=O)[C@H](NC(=O)OC)c4ccccc4)[nH]3)ccc2-5)C[C@@H]2CCC[C@@H]21)C(C)C (stereo partly drawn) [Example PN, methyl {(1R)-2-[2-(5-{2-[(2S,3aS,6aS)-1-{(2S)-2-[(methoxycarbonyl)amino]-3-methylbutanoyl}octahydrocyclopenta[b]pyrrol-2-yl]-1,11-dihydroisochromeno[4′,3′:6,7]naphtho[1,2-d]imidazol-9-yl}-1H-imidazol-2-yl)pyrrolidin-1-yl]-2-oxo-1-phenylethyl}carbamate] | < 1 | 0.03 | < 1 | 0.02 | 0.014 | < 1 | 0.009 | < 1 | 0.015 | < 1 | 0.016 | < 1 | 0.035 | 0.014 | < 1 | 0.277 | 0.027
COC(=O)N[C@H](C(=O)N1C[C@@H](C)C[C@H]1c1ncc(-c2ccc3c(c2)COc2cc4c(ccc5nc([C@@H]6C[C@H](C)CN6C(=O)[C@H](NC(=O)OC)c6ccccc6)[nH]c54)cc2-3)[nH]1)C(C)C [Example NF, Methyl {(2S)-1-[(2S,4S)-2-(5-{2-[(2S,4S)-1-{(2R)-2-[(methoxycarbonyl)amino]-2-phenylacetyl}-4-methylpyrrolidin-2-yl]-1,11-dihydroisochromeno[4′,3′:6,7]naphtho[1,2-d]imidazol-9-yl}-1H-imidazol-2-yl)-4-methylpyrrolidin-1-yl]-3-methyl-1-oxobutan-2-yl}carbamate] | < 1 | 0.017 | < 1 | 0.012 | 0.009 | < 1 | 0.006 | < 1 | 0.011 | < 1 | 0.017 | < 1 | 0.064 | 0.018 | < 1 | 0.218 | 0.031
COC(=O)N[C@H](C(=O)N1C[C@@H](C)C[C@H]1c1nc2ccc3cc4c(cc3c2[nH]1)OCc1cc(-c2cnc([C@@H]3CCCN3C(=O)[C@H](NC(=O)OC)c3ccccc3)[nH]2)ccc1-4)C(C)C [Example NB, Methyl {(1R)-2-[(2S)-2-(5-{2-[(2S,4S)-1-{(2S)-2-[(methoxycarbonyl)amino]-3-methylbutanoyl}-4-methylpyrrolidin-2-yl]-1,11-dihydroisochromeno[4′,3′:6,7]naphtho[1,2-d]imidazol-9-yl}-1H-imidazol-2-yl)pyrrolidin-1-yl]-2-oxo-1-phenylethyl}carbamate] | < 1 | 0.034 | < 1 | 0.025 | 0.023 | < 1 | 0.004 | < 1 | 0.01 | < 1 | 0.011 | < 1 | 0.039 | 0.007 | < 1 | 0.138 | 0.02
